Assay type in all cases: in vivo
The test system of assay [1] is Amaranthus retoflexus (AMARE). Kind of assay: Post-emergence herbicidal glasshouse test. The note with it: sprayed after 8 days cultivation, 250 g/ha, evaluated after 13 days, five-point scale. On the procedure: (§1) Seeds of a variety of test species are sown in standard soil in pots Amaranthus retoflexus (AMARE), Echinochloa crus-galli (ECHCG), Setaria faberi (SETFA)). After cultivation for one day (pre-emergence) or after 8 days cultivation (post-emergence) under controlled conditions in a glasshouse (at 24/16° C., day/night; 14 hours light; 65% humidity), the plants are sprayed with an aqueous spray solution derived from the formulation of the technical active ingredient in acetone/water (50:50) solution containing 0.5% Tween™ 20 (polyoxyethylene sorbitan monolaurate, CAS RN 9005-64-5). Compounds are applied at 250 g/ha unless otherwise stated. The test plants are then grown in a glasshouse under controlled conditions in a glasshouse (at 24/16° C., day/night; 14 hours light; 65% humidity) and watered twice daily. After 13 days for pre- and post-emergence, the test is evaluated for the percentage damage caused to the plant. The biological activities are shown in the following table on a five-point scale (5=81-100%; 4=61-80%; 3=41-60%; 2=21-40%; 1=0-20%).

For assay [2], the system named is Echinochloa crus-galli (ECHCG). Put plainly: Post-emergence herbicidal glasshouse test. The note with it: sprayed after 8 days cultivation, 250 g/ha, evaluated after 13 days, five-point scale. As to the method: as §1
For assay [3], the system named is Setaria faberi (SETFA). Put plainly: Post-emergence herbicidal glasshouse test. The following applies: sprayed after 8 days cultivation, 250 g/ha, evaluated after 13 days, five-point scale. As to the method: as §1
In assay [4] the test system is Amaranthus retoflexus (AMARE). Kind of assay: Pre-emergence herbicidal glasshouse test. The following applies: sprayed after one day cultivation, 250 g/ha, evaluated after 13 days, five-point scale. As to the method: as §1
Assay [5] relates to Echinochloa crus-galli (ECHCG). Put plainly: Pre-emergence herbicidal glasshouse test. The note with it: sprayed after one day cultivation, 250 g/ha, evaluated after 13 days, five-point scale. As to the method: as §1
Assay [6] relates to Setaria faberi (SETFA). Put plainly: Pre-emergence herbicidal glasshouse test. The note with it: sprayed after one day cultivation, 250 g/ha, evaluated after 13 days, five-point scale. On the procedure: as §1

In the case of `Fc1cccc(Oc2ncc(C(F)F)s2)c1-c1cc(C(F)F)no1` [Compound 1.001, 3-(difluoromethyl)-5-[2-[5-(difluoromethyl)thiazol-2-yl]oxy-6-fluoro-phenyl]isoxazole], the “percentage damage caused to the plant, AMARE” value in assay [1] and in assay [4] was 5 (5=81-100%) each time. Further, the “percentage damage caused to the plant, ECHCG” value in assay [2] and in assay [5] was 5 (5=81-100%) in each case. Moreover, the “percentage damage caused to the plant, SETFA” value in the assay with Setaria faberi (SETFA) [3] and with Setaria faberi (SETFA) [6] was 5 (5=81-100%) each time.
For the compound `C=Cc1cnc(Oc2cccc(F)c2-c2cc(C(F)F)no2)s1` [Compound 1.002, 3-(difluoromethyl)-5-[2-fluoro-6-(5-vinylthiazol-2-yl)oxy-phenyl]isoxazole], the “percentage damage caused to the plant, AMARE” value is reported as 2 (2=21-40%) in assay [1] and 1 (1=0-20%) in assay [4]. In addition, the “percentage damage caused to the plant, ECHCG” value in assay [2] and in assay [5] was 4 (4=61-80%) each time. Also, the results for the “percentage damage caused to the plant, SETFA” value in the assay with Setaria faberi (SETFA) [3] and with Setaria faberi (SETFA) [6] were 4 (4=61-80%) and 2 (2=21-40%), respectively.
In the case of `Fc1cccc(Oc2nccs2)c1-c1cc(C(F)F)no1` [Compound 1.003], the “percentage damage caused to the plant, AMARE” value is 2 (2=21-40%) in assay [1] and 5 (5=81-100%) in assay [4]. The entries for the “percentage damage caused to the plant, ECHCG” value in assay [2] and in assay [5] were 1 (1=0-20%) and 2 (2=21-40%), respectively. For the same compound, the “percentage damage caused to the plant, SETFA” value in the assay with Setaria faberi (SETFA) [3] and in the assay with Setaria faberi (SETFA) [6] was 2 (2=21-40%) each time.
On to `Fc1cccc(Oc2ncc(Br)s2)c1-c1cc(C(F)F)no1` [Compound 1.004, 5-[2-(5-bromothiazol-2-yl)oxy-6-fluoro-phenyl]-3-(difluoromethyl)isoxazole], for which the “percentage damage caused to the plant, AMARE” value in assay [1] and in assay [4] was 5 (5=81-100%) each time. The results for the “percentage damage caused to the plant, ECHCG” value in assay [2] and in assay [5] were 5 (5=81-100%) and 4 (4=61-80%), respectively. Also, the “percentage damage caused to the plant, SETFA” value in the assay with Setaria faberi (SETFA) [3] and with Setaria faberi (SETFA) [6] was 5 (5=81-100%) each time.
Regarding `Cc1cnc(Oc2cccc(F)c2-c2cc(C(F)F)no2)s1` [Compound 1.005, 3-(difluoromethyl)-5-[2-fluoro-6-(5-methylthiazol-2-yl)oxy-phenyl]isoxazole], the “percentage damage caused to the plant, AMARE” value in assay [1] is listed as 4 (4=61-80%); in assay [4], 5 (5=81-100%). For the same compound, the “percentage damage caused to the plant, ECHCG” value is recorded as 4 (4=61-80%) in assay [2] and 3 (3=41-60%) in assay [5]. The “percentage damage caused to the plant, SETFA” value in the assay with Setaria faberi (SETFA) [3] and with Setaria faberi (SETFA) [6] was 4 (4=61-80%) each time.
Take `Fc1cccc(Oc2ncc(Cl)s2)c1-c1cc(C(F)F)no1` [Compound 1.006]: the “percentage damage caused to the plant, AMARE” value in assay [1] and in assay [4] was 5 (5=81-100%) throughout. Also, the “percentage damage caused to the plant, ECHCG” value in assay [2] is recorded as 4 (4=61-80%); in assay [5] it was 5 (5=81-100%). Also, the “percentage damage caused to the plant, SETFA” value with Setaria faberi (SETFA) [3] and in the assay on Setaria faberi (SETFA) [6] was 5 (5=81-100%) each time.
For `Fc1cccc(Oc2nc(Br)cs2)c1-c1cc(C(F)F)no1` [Compound 1.007], the “percentage damage caused to the plant, AMARE” value in assay [1] and in assay [4] was 5 (5=81-100%) throughout. For the same compound, the “percentage damage caused to the plant, ECHCG” value in assay [2] is on record as 4 (4=61-80%); in assay [5] it was 3 (3=41-60%). Further, the “percentage damage caused to the plant, SETFA” value with Setaria faberi (SETFA) [3] and in the assay on Setaria faberi (SETFA) [6] was 5 (5=81-100%) each time.
For the compound `Fc1cccc(Oc2nc(Cl)cs2)c1-c1cc(C(F)F)no1` [Compound 1.008], the “percentage damage caused to the plant, AMARE” value in assay [1] is on record as 4 (4=61-80%); in assay [4], 3 (3=41-60%). The “percentage damage caused to the plant, ECHCG” value in assay [2] is listed as 2 (2=21-40%); in assay [5], 1 (1=0-20%). In addition, the entries for the “percentage damage caused to the plant, SETFA” value in the assay with Setaria faberi (SETFA) [3] and in the assay with Setaria faberi (SETFA) [6] were 1 (1=0-20%) and 3 (3=41-60%), respectively.
`Fc1cccc(Oc2nc(C(F)F)cs2)c1-c1cc(C(F)F)no1` [Compound 1.009]: the “percentage damage caused to the plant, AMARE” value in assay [1] and in assay [4] was 4 (4=61-80%) throughout. Besides, the entries for the “percentage damage caused to the plant, ECHCG” value in assay [2] and in assay [5] were 2 (2=21-40%) and 3 (3=41-60%), respectively. The “percentage damage caused to the plant, SETFA” value with Setaria faberi (SETFA) [3] was 2 (2=21-40%); in the assay with Setaria faberi (SETFA) [6] it was 5 (5=81-100%).
Turning to `Fc1cccc(-c2cc(C(F)F)no2)c1Oc1ncc(Cl)s1` [Compound 1.010], the “percentage damage caused to the plant, AMARE” value in assay [1] is 4 (4=61-80%); in assay [4] it was 5 (5=81-100%). The “percentage damage caused to the plant, ECHCG” value is reported as 3 (3=41-60%) in assay [2] and 4 (4=61-80%) in assay [5]. The “percentage damage caused to the plant, SETFA” value with Setaria faberi (SETFA) [3] and in the assay on Setaria faberi (SETFA) [6] was 4 (4=61-80%) throughout.
In the case of `Cc1cccc(-c2cc(C(F)F)no2)c1Oc1ncc(Cl)s1` [Compound 1.011], the “percentage damage caused to the plant, AMARE” value in assay [1] was 2 (2=21-40%); in assay [4], 4 (4=61-80%). Moreover, the “percentage damage caused to the plant, ECHCG” value in assay [2] was 3 (3=41-60%); in assay [5] it was 4 (4=61-80%). Also, the “percentage damage caused to the plant, SETFA” value is 3 (3=41-60%) in the assay on Setaria faberi (SETFA) [3] and 1 (1=0-20%) with Setaria faberi (SETFA) [6].
In the case of `N#Cc1cccc(Oc2ncc(Cl)s2)c1-c1cc(C(F)F)no1` [Compound 1.012], the “percentage damage caused to the plant, AMARE” value is 5 (5=81-100%) in assay [1] and 2 (2=21-40%) in assay [4]. The “percentage damage caused to the plant, ECHCG” value in assay [2] was 3 (3=41-60%); in assay [5] it was 4 (4=61-80%). Besides, the “percentage damage caused to the plant, SETFA” value in the assay with Setaria faberi (SETFA) [3] is 4 (4=61-80%); in the assay on Setaria faberi (SETFA) [6], 5 (5=81-100%).
As to `N#Cc1cccc(Oc2ncc(Br)s2)c1-c1cc(C(F)F)no1` [Compound 1.013], the “percentage damage caused to the plant, AMARE” value is recorded as 5 (5=81-100%) in assay [1] and 2 (2=21-40%) in assay [4]. In addition, the “percentage damage caused to the plant, ECHCG” value was 2 (2=21-40%) in assay [2] and 4 (4=61-80%) in assay [5]. For the same compound, the “percentage damage caused to the plant, SETFA” value in the assay on Setaria faberi (SETFA) [3] is on record as 3 (3=41-60%); with Setaria faberi (SETFA) [6], 4 (4=61-80%).
For the compound `N#Cc1cccc(Oc2ncc(C(F)F)s2)c1-c1cc(C(F)F)no1` [Compound 1.014], the “percentage damage caused to the plant, AMARE” value in assay [1] and in assay [4] was 3 (3=41-60%) in each case. The figures for the “percentage damage caused to the plant, ECHCG” value in assay [2] and in assay [5] were 3 (3=41-60%) and 5 (5=81-100%), respectively. Moreover, the “percentage damage caused to the plant, SETFA” value in the assay on Setaria faberi (SETFA) [3] is 4 (4=61-80%); with Setaria faberi (SETFA) [6] it was 5 (5=81-100%).
Take `FC(F)c1cc(-c2c(Cl)cccc2Oc2ncc(C(F)F)s2)on1` [Compound 1.019]: the “percentage damage caused to the plant, AMARE” value is given as 4 (4=61-80%) in assay [1] and 2 (2=21-40%) in assay [4]. In addition, the “percentage damage caused to the plant, ECHCG” value in assay [2] is 4 (4=61-80%); in assay [5], 5 (5=81-100%). Moreover, the “percentage damage caused to the plant, SETFA” value with Setaria faberi (SETFA) [3] and in the assay with Setaria faberi (SETFA) [6] was 5 (5=81-100%) in each case.
Take `FC(F)c1cc(-c2c(Br)cccc2Oc2ncc(C(F)F)s2)on1` [Compound 1.020]: the results for the “percentage damage caused to the plant, AMARE” value in assay [1] and in assay [4] were 4 (4=61-80%) and 1 (1=0-20%), respectively. In addition, the “percentage damage caused to the plant, ECHCG” value in assay [2] is reported as 4 (4=61-80%); in assay [5], 5 (5=81-100%). Moreover, the “percentage damage caused to the plant, SETFA” value in the assay on Setaria faberi (SETFA) [3] and in the assay with Setaria faberi (SETFA) [6] was 5 (5=81-100%) each time.
On to `FC(F)c1cc(-c2ccccc2Oc2ncc(C(F)F)s2)on1` [Compound 1.021], for which the entries for the “percentage damage caused to the plant, AMARE” value in assay [1] and in assay [4] were 4 (4=61-80%) and 3 (3=41-60%), respectively. Further, the “percentage damage caused to the plant, ECHCG” value is given as 1 (1=0-20%) in assay [2] and 4 (4=61-80%) in assay [5]. The entries for the “percentage damage caused to the plant, SETFA” value with Setaria faberi (SETFA) [3] and in the assay on Setaria faberi (SETFA) [6] were 3 (3=41-60%) and 4 (4=61-80%), respectively.
For the compound `FC(F)c1cc(-c2c(Cl)cccc2Oc2ncc(Cl)s2)on1` [Compound 1.022], the “percentage damage caused to the plant, AMARE” value in assay [1] and in assay [4] was 5 (5=81-100%) each time. Moreover, the “percentage damage caused to the plant, ECHCG” value in assay [2] and in assay [5] was 5 (5=81-100%) throughout. In addition, the “percentage damage caused to the plant, SETFA” value with Setaria faberi (SETFA) [3] and in the assay with Setaria faberi (SETFA) [6] was 5 (5=81-100%) each time.

The values are drawn from patent publication US12662476B2, “Herbicidal thiazole compounds” (SYNGENTA CROP PROTECTION AG, priority 2019, dated 2026).
